Measurements from patent US9284325B2, “Spectinamides as anti-tuberculosis agents” (UNIVERSITY OF TENNESSEE RESEARCH FOUNDATION, priority 2009, dated 2016).
In brackets after ≈: the same amount, converted by molar mass. Where a name gives a salt, the structure may show the parent alone.

What was measured:
M. tuberculosis H37Rv = experiment: MIC determination by microbroth dilution, anti-tuberculosis activity; type: cell-based, Mycobacterium tuberculosis; conditions: Mycobacterium tuberculosis, H37RV, 168 h; read-out: MIC
[1] = system: S. aureus 8325 or strain ATCC 29213; experiment: MIC determination by microbroth dilution; type: cell-based, Staphylococcus aureus; conditions: Staphylococcus aureus, ATCC29213; S. aureus 8325 or strain ATCC 29213 (for 1471-1544)
[2] = system: Strep. pyogenes ATCC 700294; experiment: MIC determination by microbroth dilution; type: cell-based, Streptococcus pyogenes; conditions: Streptococcus pyogenes, ATCC700294, read-out: MIC S. pyogenes
[3] = system: Strep. pneumoniae DAW27 or strain R6; experiment: MIC determination by microbroth dilution; type: cell-based, Streptococcus pneumoniae; conditions: Streptococcus pneumoniae; Strep. pneumoniae DAW27 or strain R6 (for 1443-1544); read-out: MIC S. pneumoniae
E. faecalis ATCC 33186 = experiment: MIC determination by microbroth dilution; type: cell-based, Enterococcus faecalis; conditions: Enterococcus faecalis, ATCC33186
B. anthracis Sterne 34F2 = experiment: microbe, parasite or virus in culture; type: cell-based, Bacillus anthracis; conditions: Bacillus anthracis, STERNE34F2, read-out: MIC B. anthracis 34F2
[4] = system: Burkholderia cepacia ATCC 25416; experiment: MIC determination by microbroth dilution; type: cell-based; conditions: ATCC25416, read-out: MIC B. cepcia
[5] = system: Proteus mirabilis ATCC 25933; experiment: MIC determination by microbroth dilution; type: cell-based; conditions: ATCC25933
[6] = system: Proteus vulgaris ATCC 33420; experiment: MIC determination by microbroth dilution; type: cell-based; conditions: ATCC33420
[7] = system: Klebsiella pneumoniae ATCC 33495; experiment: MIC determination by microbroth dilution; type: cell-based; conditions: ATCC33495
[8] = system: Acinetobacter baumannii ATCC 19606; experiment: MIC determination by microbroth dilution; type: cell-based; conditions: ATCC19606
P. aeruginosa PAO1 = experiment: MIC determination by microbroth dilution; type: cell-based, Pseudomonas aeruginosa; conditions: Pseudomonas aeruginosa
[9] = system: Strenotrophomonas maltophilia ATCC 13637; experiment: MIC determination by microbroth dilution; type: cell-based
E. coli K12 = experiment: MIC determination by microbroth dilution; type: cell-based, Escherichia coli; conditions: Escherichia coli, K12
E. coli K12 ΔtolC = experiment: microbe, parasite or virus in culture; type: cell-based; conditions: Escherichia coli, read-out: MIC E. coli K12 ΔtolC
E. coli ribosomes = type: biochemical; conditions: tested at 0.66 and 6.6 μM, FIG. 5

SMILES	MIC (M. tuberculosis H37Rv)	MIC [1]	MIC [2]	MIC [3]	MIC (E. faecalis ATCC 33186)	MIC (B. anthracis Sterne 34F2)	MIC [4]	MIC [5]	MIC [6]	MIC [7]	MIC [8]	MIC (P. aeruginosa PAO1)	MIC [9]	MIC (E. coli K12)	MIC (E. coli K12 ΔtolC)	relative inhibitory activity on luciferase production (E. coli ribosomes)
CN[C@@H]1[C@H](O)[C@H](NC)C2O[C@]3(O)C(OC2[C@H]1O)O[C@H](C)C[C@H]3NC(=O)c1ccc(F)cc1 (stereo partly drawn) [Compound 1364, 3′-Dihydro-3′-deoxy-4(R)-4-fluorobenzoylamino spectinomycin Dihydrochloride]	50 µg/mL	> 200 µg/mL	100 µg/mL	> 200 µg/mL	> 200 µg/mL	200 µg/mL	> 200 µg/mL	> 200 µg/mL	> 200 µg/mL	> 200 µg/mL	> 200 µg/mL	> 200 µg/mL	> 200 µg/mL	> 200 µg/mL	100 µg/mL	less active than 1329
CN[C@@H]1[C@H](O)[C@H](NC)C2O[C@]3(O)C(OC2[C@H]1O)O[C@H](C)C[C@H]3NC(=O)Cc1csc(Nc2ccc(C(F)(F)F)cc2)n1 (stereo partly drawn) [Compound 1541, 3′-Dihydro-3′-deoxy-4(R)-(2-((4-(trifluoromethyl)phenyl)amino)-thiazol-4-yl)acetylamino spectinomycin tribromide]	6.25 µg/mL	100 µg/mL	6.25 µg/mL	3.1 µg/mL	25 µg/mL	> 200 µg/mL	> 200 µg/mL	> 200 µg/mL	> 200 µg/mL	> 200 µg/mL	> 200 µg/mL	25 µg/mL	200 µg/mL	> 200 µg/mL	12.5 µg/mL	–
CN[C@@H]1[C@H](O)[C@H](NC)C2O[C@]3(O)C(OC2[C@H]1O)O[C@H](C)C[C@H]3NC(=O)Cc1cn(Cc2ccccc2)nn1 (stereo partly drawn) [Compound 1537, 3′-Dihydro-3′-deoxy-4(R)-2-(1-benzyl-1H-1,2,3-triazol-4-yl)acetyl-amino spectinomycin tetrabromide]	50 µg/mL (≈ 93.9 µM)	100 µg/mL (≈ 188 µM)	3.1 µg/mL (≈ 5.82 µM)	3.1 µg/mL (≈ 5.82 µM)	25 µg/mL (≈ 46.9 µM)	> 200 µg/mL	> 200 µg/mL	> 200 µg/mL	> 200 µg/mL	> 200 µg/mL	> 200 µg/mL	> 200 µg/mL	> 200 µg/mL	> 200 µg/mL	12.5 µg/mL (≈ 23.5 µM)	–
CN[C@@H]1[C@H](O)[C@H](NC)C2O[C@]3(O)C(OC2[C@H]1O)O[C@H](C)C[C@H]3NC(=O)Cc1ccc(C)cc1 (stereo partly drawn) [Compound 1399, 3′-Dihydro-3′-deoxy-4(R)-p-tolylacetylamino spectinomycin Dihydrochloride]	6.1 µg/mL	50 µg/mL	25 µg/mL	25 µg/mL	200 µg/mL	100 µg/mL	> 200 µg/mL	> 200 µg/mL	> 200 µg/mL	> 200 µg/mL	> 200 µg/mL	100 µg/mL	> 200 µg/mL	> 200 µg/mL	100 µg/mL	–
CN[C@@H]1[C@H](O)[C@H](NC)C2O[C@]3(O)C(OC2[C@H]1O)O[C@H](C)C[C@H]3NC(=O)c1cccc2cccnc12 (stereo partly drawn) [Compound 1536, 3′-Dihydro-3′-deoxy-4(R)-(quinoline-8-yl)carbonylamino spec-tinomycin trihydrobromide]	> 200 µg/mL	> 200 µg/mL	> 200 µg/mL	200 µg/mL	> 200 µg/mL	> 200 µg/mL	> 200 µg/mL	> 200 µg/mL	> 200 µg/mL	> 200 µg/mL	> 200 µg/mL	> 200 µg/mL	> 200 µg/mL	> 200 µg/mL	> 200 µg/mL	–
CN[C@@H]1[C@H](O)[C@H](NC)C2O[C@]3(O)C(OC2[C@H]1O)O[C@H](C)C[C@H]3NC(=O)Cc1csc(Nc2ccccc2)n1 (stereo partly drawn) [Compound 1520, 3′-Dihydro-3′-deoxy-4(R)-(2-(phenylamino)thiazol-4-yl)acetylamino spectinomycin trihydrobromide]	6.25 µg/mL	100 µg/mL	3.1 µg/mL	3.1 µg/mL	100 µg/mL	> 200 µg/mL	> 200 µg/mL	> 200 µg/mL	> 200 µg/mL	> 200 µg/mL	> 200 µg/mL	> 200 µg/mL	> 200 µg/mL	> 200 µg/mL	25 µg/mL	–
CN[C@@H]1[C@H](O)[C@H](NC)C2O[C@]3(O)C(OC2[C@H]1O)O[C@H](C)C[C@H]3NC(=O)[C@H](Cc1ccccc1)NC(=O)CN (stereo partly drawn) [Compound 1502, 3′-Dihydro-3′-deoxy-4(R)-[2(S)-(2-aminoacetamido)-3-phenyl]-propanoylamino spectinomycin Trihydrochloride]	> 200 µg/mL	> 200 µg/mL	> 200 µg/mL	> 200 µg/mL	> 200 µg/mL	> 200 µg/mL	> 200 µg/mL	> 200 µg/mL	> 200 µg/mL	> 200 µg/mL	> 200 µg/mL	> 200 µg/mL	> 200 µg/mL	> 200 µg/mL	> 200 µg/mL	–
CN[C@@H]1[C@H](O)[C@H](NC)C2O[C@]3(O)C(OC2[C@H]1O)O[C@H](C)C[C@H]3NC(=O)CCN (stereo partly drawn) [Compound 1469, 3′-Dihydro-3′-deoxy-4(R)-(3-amino)propanoylamino spectinomycin Trihydrochloride]	200 µg/mL	> 200 µg/mL	100 µg/mL	50 µg/mL	50 µg/mL	50 µg/mL	> 200 µg/mL	> 200 µg/mL	> 200 µg/mL	> 200 µg/mL	> 200 µg/mL	> 200 µg/mL	25 µg/mL	> 200 µg/mL	100 µg/mL	–
CN[C@@H]1[C@H](O)[C@H](NC)C2O[C@]3(O)C(OC2[C@H]1O)O[C@H](C)C[C@H]3NC(=O)c1ccccc1F (stereo partly drawn) [Compound 1492, 3′-Dihydro-3′-deoxy-4(R)-(2-fluorobenzene-1-yl)carboxylicamino spectinomycin dihydrochloride]	> 200 µg/mL	> 200 µg/mL	50 µg/mL	100 µg/mL	> 200 µg/mL	> 200 µg/mL	> 200 µg/mL	> 200 µg/mL	> 200 µg/mL	> 200 µg/mL	> 200 µg/mL	> 200 µg/mL	> 200 µg/mL	> 200 µg/mL	200 µg/mL	–
CN[C@@H]1[C@H](O)[C@H](NC)C2O[C@]3(O)C(OC2[C@H]1O)O[C@H](C)C[C@H]3NC(=O)Cc1cccnn1 (stereo partly drawn) [Compound 1449, 3′-Dihydro-3′-deoxy-4(R)-(pyridazin-3-yl)acetylamino spectinomycin tetra hydrobromide]	25 µg/mL	> 200 µg/mL	200 µg/mL	25 µg/mL	> 200 µg/mL	> 200 µg/mL	> 200 µg/mL	> 200 µg/mL	> 200 µg/mL	> 200 µg/mL	> 200 µg/mL	> 200 µg/mL	> 200 µg/mL	> 200 µg/mL	100 µg/mL	–
CN[C@@H]1[C@H](O)[C@H](NC)C2O[C@]3(O)C(OC2[C@H]1O)O[C@H](C)C[C@H]3NC(=O)C[C@@H](N)c1ccc(F)cc1 (stereo partly drawn) [Compound 1487, 3′-Dihydro-3′-deoxy-4(R)-[3(R)-amino,3-(4-fluorophenyl)]propanoylamino spectinomycin Trihydrochloride]	200 µg/mL	> 200 µg/mL	50 µg/mL	12.5 µg/mL	> 200 µg/mL	> 200 µg/mL	> 200 µg/mL	> 200 µg/mL	> 200 µg/mL	> 200 µg/mL	> 200 µg/mL	> 200 µg/mL	> 200 µg/mL	200 µg/mL	200 µg/mL	–
CN[C@@H]1[C@H](O)[C@H](NC)C2O[C@]3(O)C(OC2[C@H]1O)O[C@H](C)C[C@H]3NC(=O)[C@@H](N)Cc1ccccc1 (stereo partly drawn) [Compound 1515, 3′-Dihydro-3′-deoxy-4(R)-[2(S)-amino,3-phenyl]propanoylamino spectinomycin Trihydrochloride]	200 µg/mL	> 200 µg/mL	12.5 µg/mL	6.25 µg/mL	> 200 µg/mL	> 200 µg/mL	> 200 µg/mL	> 200 µg/mL	100 µg/mL	> 200 µg/mL	> 200 µg/mL	> 200 µg/mL	> 200 µg/mL	> 200 µg/mL	12.5 µg/mL	–
